Source: patent US8080423B2, “Reagent containing protease reaction promoter and/or colorant stabilizer” (Asahi Kasei Pharma Corporation, priority 2004, dated 2011)
“And” between values parts separate entries of the source, which are not always exact repeats. Equal entries are not always repeated. Where two headings read alike, the source gives them in different places.

Assays:
[1] = system: Neutral protease (manufactured by Toyobo Co., Ltd.); assay: Screening of protease reaction promoter (Example 1); format: biochemical; conditions: for protease reaction promoting effect (in words): judged from Table 1
Experimental: 1) R-1: Reagent for Protein Decomposition
2) R-2: Reagent for Glycated Amino Acid Detection
The following substances were independently used as a test sample. Note that concentrations described in parentheses each represent a final concentration of the substance in the reagent R1.
Absorbance before the addition of the reagent R-2 and 5 minutes after the addition was measured at 660 nm. […] The AH-AL shown in Table 1 is a difference obtained by subtracting absorbance AL which was obtained from the primary calibrator at level 2 (5.38%) from absorbance AH which was obtained from the primary calibrator at level 4 (9.88%). Here, if AH-AL is large, the sample is judged to have a protease reaction promoting effect. In particular, when AH-AL is 20 or more, the sample has an excellent promoting effect.

[2] = Screening of stabilizer for colorant, DA67 (Example 13); format: physicochemical
Experimental: (§1) The following substances were used as test samples. Note that concentrations described in parentheses each represent a final concentration of the substance in the reagent R-1.
(§2) Tween-20 (1%), Brij35 (1%), Triton X-100 (1%), deoxycholic acid (1%), imino-diacetic acid (IDA; 1 mM), ZnSO4 (0.1 mM), AlCl3 (0.1 mM), potassium ferrocyanate (0.01 mM), sorbitol (5%), glucose (5%), sodium nitrite (2 mM), dimethylsulfoxide (DMSO; 10%) (those substances are manufactured by Wako Pure Chemical Industries, Inc.), 2-hydroxypropyl-β-cyclodextrin (2HP β CD; 0.5%, 2%, 5%) and methyl-β-cyclodextrin (M β CD; 0.5%, 2%, 5%) (those substances are manufactured by Nihon Shokuhin Kako Co., Ltd.).
(§3) 500 μl of the R-1 reagent and 500 μl of the R-2 which had been incubated to 37° C. were mixed. The mixture was incubated to 37° C. for 2 minutes, and absorbance thereof (A0) was measured. The mixture was added with 10 μl of 500 μM hydrogen peroxide or distilled water. The whole was incubated to 37° C., and absorbance exactly 5 minutes after the addition of hydrogen peroxide (A1) was measured, to calculate a change in absorbance ΔA (A1-A0). The absorbance was measured using a wavelength of 750 nm when DA64 was used as the colorant, a wavelength of 660 nm when DA67 was used as the colorant, and a wavelength of 570 nm when 4-AA-TOOS was used as the colorant.
(§4) Immediately after the preparation of the reagent, the reagent was preserved at 37° C. for 2 days and 9 days, and measurement of sensitivity of a blank which was distilled water and of hydrogen peroxide was performed.

[3] = Screening of stabilizer for colorant, MBTH-TOOS (Example 13); format: physicochemical
[4] = Screening of stabilizer for colorant, DA64 (Example 13); format: physicochemical; conditions: DA-64, 750 nm, 37° C., additives at conc. (1%; IDA 1 mM; Zn, Al 0.1 mM; ferrocyanide 0.01 mM; sorbitol 5%; DMSO 10%)
Experimental: as §1, §2, §3, §4

[5] = test sample 1% in R-1, 660 nm, 20 or more = excellent promoting effect
[6] = test sample 2 mM in R-1, 660 nm
[7] = DA-67, 660 nm, 37° C., 0 days, additives at conc. (1%; IDA 1 mM; Zn, Al 0.1 mM; ferrocyanide 0.01 mM; sorbitol 5%; DMSO 10%)
[8] = DA-67, 660 nm, 37° C., 2 days, additives at conc. (1%; IDA 1 mM; Zn, Al 0.1 mM; ferrocyanide 0.01 mM; sorbitol 5%; DMSO 10%)
[9] = MBTH-TOOS, 570 nm, 37° C., 0 days, additives at conc. (1%; IDA 1 mM; Zn, Al 0.1 mM; ferrocyanide 0.01 mM; sorbitol 5%; DMSO 10%)
[10] = MBTH-TOOS, 570 nm, 37° C., 2 days, additives at conc. (1%; IDA 1 mM; Zn, Al 0.1 mM; ferrocyanide 0.01 mM; sorbitol 5%; DMSO 10%)

Compound | AH (absorbance from primary calibrator at level 4 (9.88%)) ([1]; test sample 1% in R-1, 660 nm) | AL (absorbance from primary calibrator at level 2 (5.38%)) ([1]; test sample 1% in R-1, 660 nm) | AH − AL [1, 5] [mAbs] | protease reaction promoting effect (in words) [1] | further results
CCCCCCCCCCCC[N+](C)(C)CC(=O)[O-] [AM-301, betaine lauryl dimethylaminoacetate] | 122.0 | 109.9 | 12.1 |  | 
Nc1ncnc2c1ncn2[C@@H]1O[C@H](COP(=O)(O)OP(=O)(O)OP(=O)(O)O)[C@@H](O)[C@H]1O [ATP, adenosine 5′-triphosphate, reference compound] |  |  |  |  | AH (absorbance from primary calibrator at level 4 (9.88%)) [1, 6]: 57.8; AH − AL [1, 6]: 3.6 mAbs; AL (absorbance from primary calibrator at level 2 (5.38%)) [1, 6]: 54.2
sodium cocoyl sarcosinate [Sarcosinate CN-30] | 106.2 | 76.6 | 29.6 | effects were observed | 
OC[C@@H](O)[C@@H](O)[C@H](O)[C@@H](O)CO [Sorbitol, sorbitol, reference compound] |  |  |  |  | blank (distilled water) change in absorbance [2, 7]: 0.093 Abs; blank (distilled water) change in absorbance [2, 8]: 2.545 Abs; blank (distilled water) change in absorbance [3, 9]: 0.151 Abs; blank (distilled water) change in absorbance [3, 10]: 1.225 Abs; blank (distilled water) change in absorbance ([4]; 0 days): −0.010 Abs; blank (distilled water) change in absorbance ([4]; 2 days): 0.080 Abs; blank (distilled water) change in absorbance ([4]; 9 days): 0.230 Abs; AH (absorbance from primary calibrator at level 4 (9.88%)) ([1]; test sample 5% in R-1, 660 nm): 68.3; AH − AL ([1]; test sample 5% in R-1, 660 nm): 6.5 mAbs; AL (absorbance from primary calibrator at level 2 (5.38%)) ([1]; test sample 5% in R-1, 660 nm): 61.8
CCCCCCCCCCCCOP(=O)(O)O [Phosten HLP, lauryl phosphate] | 134.6 | 121.9 | 12.7 |  | 
C[S+](C)[O-] [Dimethylsulfoxide, dimethylsulfoxide, reference compound] |  |  |  |  | blank (distilled water) change in absorbance [2, 7]: 0.088 Abs; blank (distilled water) change in absorbance [2, 8]: 2.103 Abs; blank (distilled water) change in absorbance [3, 9]: 0.149 Abs; blank (distilled water) change in absorbance [3, 10]: 1.134 Abs; blank (distilled water) change in absorbance ([4]; 0 days): −0.005 Abs; blank (distilled water) change in absorbance ([4]; 2 days): 0.085 Abs; blank (distilled water) change in absorbance ([4]; 9 days): 0.233 Abs; AH (absorbance from primary calibrator at level 4 (9.88%)) ([1]; test sample 10% in R-1, 660 nm): 63.0; AH − AL ([1]; test sample 10% in R-1, 660 nm): 3.4 mAbs; AL (absorbance from primary calibrator at level 2 (5.38%)) ([1]; test sample 10% in R-1, 660 nm): 59.6
O=S(=O)([O-])[O-].[Zn+2] [ZnSO4, reference compound] |  |  |  |  | blank (distilled water) change in absorbance [2]: 0.051 Abs and 0.062 Abs and 0.050 Abs; blank (distilled water) change in absorbance [3]: 0.050 Abs and 0.049 Abs and 0.055 Abs; change in absorbance when 500 μM of hydrogen peroxide was measured [3]: 0.003; AH (absorbance from primary calibrator at level 4 (9.88%)) [1]: 145.7; AH − AL [1]: 1.6 mAbs; AL (absorbance from primary calibrator at level 2 (5.38%)) [1]: 144.1
[Cl][Al]([Cl])[Cl] [AlCl3] |  |  |  |  | blank (distilled water) change in absorbance [3]: 0.045 Abs and 0.055 Abs and 0.058 Abs; change in absorbance when 500 μM of hydrogen peroxide was measured [3]: 0.005 and 0.009; AH (absorbance from primary calibrator at level 4 (9.88%)) [1]: 60.7; AH − AL [1]: 5.6 mAbs; AL (absorbance from primary calibrator at level 2 (5.38%)) [1]: 55.1
Cc1cc2nc3c(=O)[nH]c(=O)nc-3n(C[C@H](O)[C@H](O)[C@H](O)COP(=O)(O)OP(=O)(O)OC[C@H]3O[C@@H](n4cnc5c(N)ncnc54)[C@H](O)[C@@H]3O)c2cc1C [FAD, flavin adenine dinucleotide, reference compound] |  |  |  |  | AH (absorbance from primary calibrator at level 4 (9.88%)) [1, 6]: 46.2; AH − AL [1, 6]: 0.7 mAbs; AL (absorbance from primary calibrator at level 2 (5.38%)) [1, 6]: 45.5
CCCCCCCCCCCCOCCOCCOCCOCCOS(=O)(=O)O.OCCN(CCO)CCO [SBL-4T, triethanolamine polyoxyethylene(4)lauryl ether sulfate] | 103.2 | 75.2 | 28.0 | effects were observed | 
C[C@H](CCC(=O)NCCC[N+](C)(C)CCCS(=O)(=O)[O-])[C@H]1CC[C@H]2[C@@H]3[C@H](O)C[C@@H]4C[C@H](O)CC[C@]4(C)[C@H]3C[C@H](O)[C@]12C [CHAPS, 3-[(3-cholamidopropyl)dimethyl-ammonio]propanesulfonic acid, reference compound] | 111.4 | 104.5 | 6.9 |  | 
CCCCCCCCCCCCCOCCOCCOCCOCCOCCOCCOCC(=O)[O-].[Na+] [ECTD-6NEX, sodium polyoxyethylene(6)tridecyl ether acetate] | 82.9 | 53.4 | 29.5 | effects were observed | 
O=[N+]([O-])c1ccc(-[n+]2nc(-c3ccc(S(=O)(=O)O)cc3S(=O)(=O)O)nn2-c2ccc(I)cc2)c([N+](=O)[O-])c1 [WST-3, 2-(4-iodophenyl)-3-(2,4-dinitrophenyl)-5-(2,4-disulfophenyl)-2H-tetrazolium, reference compound] |  |  |  |  | AH (absorbance from primary calibrator at level 4 (9.88%)) [1, 6]: 184.6; AH − AL [1, 6]: 23.7 mAbs; AL (absorbance from primary calibrator at level 2 (5.38%)) [1, 6]: 160.9
CCCCCCCCCCCC(=O)N(C)CCS(=O)(=O)[O-].[Na+] [LMT, sodium N-lauroyl methyl taurinate] | 102.4 | 73.0 | 29.4 | effects were observed | 
CCCCCCCCCCCCOCCOCCOS(=O)(=O)O.OCCN(CCO)CCO [SBL-2T-36, triethanolamine polyoxyethylene(2)lauryl ether sulfate] | 93.3 | 65.3 | 28.0 | effects were observed | 
monostearate polyoxyethylene(15)glyceryl [TMGS-15] | 92.0 | 82.2 | 9.8 |  | 
triethanolamine polyoxyethylene(3)alkyl ether sulfate [SBL-203-27] | 112.1 | 84.3 | 27.8 | effects were observed | 
sodium polyoxyethylene(3)tridecyl ether acetate [ECTD-3NEX] | 95.8 | 68.3 | 27.5 | effects were observed | 
CCCCCCCCCCCCOS(=O)(=O)[O-].[Na+] [SLS, sodium lauryl sulfate, reference compound] | 53.3 | 48.7 | 4.6 |  | 
O=NO [Sodium nitrite, sodium nitrite, reference compound] |  |  |  |  | AH (absorbance from primary calibrator at level 4 (9.88%)) [1]: 107.9; AH − AL [1]: 26.2 mAbs; AL (absorbance from primary calibrator at level 2 (5.38%)) [1]: 81.7
